Data published in US6235516A, “Biocatalysts with amine acylase activity” (Novartis AG, priority 1996, dated 2001).
Where “and” joins values, the source holds several entries; their conditions need not be identical. Equal values may be shown once.

What was measured:
[1] = system: acylase from Arthrobacter aurescens Ac5R; test: Enzymatic hydrolysis of racemic amides with highly purified acylase from Arthrobacter aurescens Ac5R; format: biochemical; conditions: for Selectivity E: enantioselectivity of the hydrolysis; for e.e. (R)-Amine: formed amine, analysed as acetamide by chiral HPLC; for e.e. (S)-Amide: unconverted amide, chiral HPLC
Method: (§1) To 10 ml of a 20 mM solution of each of the racemic amides shown below 1 in 0.1 M phosphate buffer pH 7.0, 5 ml (1.3 units) of the enzyme is added and the solutions are shaken at 100 rpm and 30° C. [drawing 10] [drawing 11]
(§2) When the conversion reaches about 50% (checked by HPLC) the solutions are acidified to pH 2 by adding 1 N HCl and extracted three times with dichloromethane to obtain the unconverted amides. The aqueous layers are neutralized with 1 N NaOH solution and extracted again three times with dichloromethane to recover the formed amines. Both organic phases are dried with MgSO4, filtered and the solvent is distilled off. The amides are used directly for optical purity determinations (HPLC), whereas the obtained amines are converted to the acetamides by adding 100 μl triethylamine and 100 μl acetic anhydride to each sample and then analyzed for the optical purity by "chiral" HPLC.

[2] = target: T1, acylase from Rhodococcus equi Ac6 (Rhodococcus (subgen. Prescottella) equi, UniProt A0A3S5Y3Z2); test: Enzymatic hydrolysis of racemic amides with partially purified acylase from Rhodococcus equi Ac6; format: biochemical; set-up: e.e. (R)-Amide: unit not given here; conditions: for Selectivity E: enantioselectivity of the hydrolysis; for e.e. (S)-Amine: formed amine, analysed as acetamide; for e.e. (R)-Amide: unconverted amide, chiral HPLC
T1 construct: N-terminus […]
T1 sequence (A0A3S5Y3Z2 1-487): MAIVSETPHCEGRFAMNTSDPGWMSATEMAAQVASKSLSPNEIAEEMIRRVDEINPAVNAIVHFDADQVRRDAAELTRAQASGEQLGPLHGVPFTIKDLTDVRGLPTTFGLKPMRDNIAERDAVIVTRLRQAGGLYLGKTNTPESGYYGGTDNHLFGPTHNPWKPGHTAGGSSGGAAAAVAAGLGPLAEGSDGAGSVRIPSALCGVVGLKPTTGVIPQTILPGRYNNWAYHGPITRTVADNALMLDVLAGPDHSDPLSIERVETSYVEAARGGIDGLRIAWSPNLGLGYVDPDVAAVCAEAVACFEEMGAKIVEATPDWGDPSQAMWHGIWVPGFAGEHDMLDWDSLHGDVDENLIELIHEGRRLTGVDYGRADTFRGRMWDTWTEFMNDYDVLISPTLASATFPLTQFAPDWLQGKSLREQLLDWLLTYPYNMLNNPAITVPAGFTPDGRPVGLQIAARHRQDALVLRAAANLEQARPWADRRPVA
Method: as §1, §2
The experiments are carried out in the same manner as described in example 22.

[3] = system: whole cells of Rhodococcus globerulus K1/1; test: Amide hydrolysis with whole cells of Rhodococcus globerulus K1/1; format: cell-based; conditions: for Selectivity E: enantioselectivity of the hydrolysis; for e.e. (S)-Amine: formed amine, analysed as acetamide; for e.e. (R)-Amide: unconverted amide, chiral HPLC
Text: as §2
To 50 ml of a 10 mM solution in phosphate buffer pH 7.0 of each racemic amide listed in table 16, whole cells of Rhodococcus globerulus K1/1 (each obtained from 50 ml shake flask medium (see example 21), OD660 =2.0) is added. The deacetylation is performed at 30° C. under continuous shaking (200 rpm). The reaction is monitored by HPLC and after the conversion is about 50% the reaction mixtures are worked up in the same manner as described in example 22.

AcR5b-acylase [4] = test: Dependence of the reaction velocity of the AcR5b-acylase on substrate concentration (Km, Vmax); format: biochemical, Arthrobacter aurescens AcR5b; conditions: for Km: 30 min incubation, pH 7; for relative maximum reaction velocity: (R)-N-acetyl-1-phenylethylamine = 100
Method: Activity assays are performed under the standard conditions given in example 11 with an incubation time of 30 min. using different initial concentrations of (R)-N-acetyl-1-phenylethylamine and racemic N-acetyl-(m-cyano-phenyl)ethylamine. The final AcR5b-acylase preparation obtained in example 4d, which has been diluted 20 fold with 69 mM potassium phosphate buffer, pH 7, serve as the enzyme source. The Michaelis constants (Km) and the maximum reaction velocities are calculated as described in example 9.

AcR5b-acylase [5] = test: Stability of the AcR5b-acylase during freezing, with and without cryoprotective agents; format: physicochemical, Arthrobacter aurescens AcR5b
K1/1 acylase = test: Hydrolysis of racemic 2-acetylamino-1-phenyl-4-pentene with the purified K1/1 acylase; format: biochemical, Rhodococcus globerulus K1/1; conditions: at 50.3% conversion
Method: To 50 ml of a 10 mM solution of racemic 2-acetylamino-1-phenyl-4-pentene in phosphate buffer (pH 7.0) 7 ml of the K1/1 acylase are added (0.456 U), which has been purified by HIC and concentrated by ultrafiltration (example 26.5 and 26.6). The deacylation is performed at 30° C. under continuous shaking at 200 rpm. The reaction is monitored by HPLC (see example 1), and after the conversion is about 50% the solution is acidified to pH 2 with 1 N HCl and extracted three times with one volume of dichloromethane to obtain the unconverted amides. The aqueous phase is neutralized with 1 N NaOH and extracted again three times with dichloromethane to recover the formed amines. Both organic phases are dried with MgSO4, filtered and the solvent is distilled off. The amides are used directly for optical purity determinations via HPLC under the following conditions: Chiralcel OJ column, hexane/isopropanol 9:1 as the eluent, flow rate 1 ml/min., detection at 208 nm. The obtained amines are converted to the acetamides by adding […] to each sample before being also analyzed for the optical purity by HPLC.

R. equi Ac6 = test: Growth and induction of the acylase of Rhodococcus equi Ac6 (shake flask culture); format: cell-based; conditions: for induction of the acylase expression of strain Ac6: 3 g/l in basic medium; for Enzyme yield with (R)-amide as the acylase substrate / Enzyme yield with (S)-amide as the acylase substrate: basic medium + 3 g/l of the amide as inducer; for Enzyme yield with (R)-amide as the acylase substrate / Enzyme yield with (S)-amide as the acylase substrate / OD660 at cell harvest: 91 h; for OD660 at cell harvest: basic medium + 3 g/l of the amide, basic medium alone 0.46; for effect on growth of Rhodococcus equi Ac6: in the growth medium
Method: R. equi Ac6 is grown in basic medium containing 3 g/l (S)-N-acetyl-1-phenylethylamine or 3 g/l (R)-N-acetyl-1-phenylethylamine or no N-acetyl-1-phenylethylamine for 91 h by the shake flask culture technique described in example 1. By applying the methods given in example 1 the crude extracts are prepared and subjected to measurement of the protein concentration and the acylase activity using (S)-N-acetyl-1-phenylethylamine and (R)-N-acetyl-1-phenylethylamine as the substrates.
R. equi Ac6 cells are inoculated into three 1 l Erlenmeyer flask containing each 100 ml of basic medium with 10 g/l yeast extract and 10 g/l meat extract as additional nutrients. The cells are grown (shake flask technique see example 1) until the OD660 reaches about 2. Then the culture is split into eight portions of 25 ml and (S)-N-acetyl-1-phenylethylamine is added to the shake flasks in final concentrations of 0-7 g/l in steps of 1 g/l. The cells are further incubated for 25 h. Then the protein concentrations and acylase activities of the crude extracts are measured as described in example 1.
In another experiment (S)-N-acetyl-1-phenylethylamine is added to the culture medium in final concentrations of 1 to 5 g/l in steps of 1 g/l directly after inoculation to one series of shake flasks (see example 1) and after 72 h of growth to another. Basic medium without peptone supplemented with 20 g/l meat extract and 20 g/l yeast extract is used. 96 h after inoculation the cells are harvested by centrifugation and the protein concentration and acylase activity in the crude extract are measured (see example 1).

[6] = AcR5b-acylase frozen 2.5 h at -20° C. with the cryoprotective agent of the label (label AcR5b-acylase = none)
[7] = AcR5b-acylase frozen 2.5 h at -80° C. with the cryoprotective agent of the label (label AcR5b-acylase = none)
[8] = AcR5b-acylase frozen 9 days at -20° C. with the cryoprotective agent of the label (label AcR5b-acylase = none)
[9] = AcR5b-acylase frozen 9 days at -80° C. with the cryoprotective agent of the label (label AcR5b-acylase = none)

Compound: CC(=O)NC(C)c1cccc(C#N)c1 (racemic) [Substrate 2a]
- Selectivity E [1]: 60
- e.e. (R)-Amine [1]: 91.5
- e.e. (S)-Amide [1]: 82.4
- Selectivity E [2]: > 500
- e.e. (S)-Amine [2]: > 99.9
- e.e. (R)-Amide [2]: 85.5

Compound: CC(=O)NC(C)c1ccc(C#N)cc1 (racemic) [Substrate 3a]
- Selectivity E [1]: 320
- e.e. (R)-Amine [1]: 95.0
- e.e. (S)-Amide [1]: > 99.9
- Selectivity E [2]: > 500
- e.e. (S)-Amine [2]: > 99.9
- e.e. (R)-Amide [2]: 97.4

Compound: CCC(NC(C)=O)c1ccccc1 (racemic) [Substrate 4a]
- Selectivity E [1]: > 500
- e.e. (R)-Amine [1]: > 99.9
- e.e. (S)-Amide [1]: 87.4
- Selectivity E [2]: > 500
- e.e. (S)-Amine [2]: 98.5
- e.e. (R)-Amide [2]: > 99.9
- Selectivity E [3]: 140
- e.e. (S)-Amine [3]: 90.0
- e.e. (R)-Amide [3]: > 99.9

Compound: CC(=O)NC1CCc2ccccc21 (racemic) [Substrate 5a]
- Selectivity E [1]: 180
- e.e. (R)-Amine [1]: 95.7
- e.e. (S)-Amide [1]: 96.1
- Selectivity E [2]: 65
- e.e. (S)-Amine [2]: 88.2
- e.e. (R)-Amide [2]: 96.7

Compound: CC(=O)NC1CCOc2ccccc21 (racemic) [Substrate 6a]
- Selectivity E [1]: 32
- e.e. (R)-Amine [1]: 90.5
- e.e. (S)-Amide [1]: 46.6
- Selectivity E [3]: 290
- e.e. (S)-Amine [3]: 93.5
- e.e. (R)-Amide [3]: > 99.9

Compound: CC(=O)NC(C)c1ccc2c(c1)OCO2 (racemic) [Substrate 8a]
- Selectivity E [1]: 60
- e.e. (R)-Amine [1]: 91.5
- e.e. (S)-Amide [1]: 82.4
- Selectivity E [2]: 280
- e.e. (S)-Amine [2]: 97.8
- e.e. (R)-Amide [2]: 90.1

Compound: CC(=O)NC(C)CCc1ccccc1 (racemic) [Substrate 9a]
- Selectivity E [2]: 230
- e.e. (S)-Amine [2]: 92.1
- e.e. (R)-Amide [2]: > 99.9

Compound: C=CCC(Cc1ccccc1)NC(C)=O (racemic) [Substrate 10a]
- Selectivity E [3]: 70
- e.e. (S)-Amine [3]: 90.0
- e.e. (R)-Amide [3]: 95.7

Compound: CCCC(Cc1ccccc1)NC(C)=O (racemic) [Substrate 11a]
- Selectivity E [3]: 35
- e.e. (S)-Amine [3]: 77.8
- e.e. (R)-Amide [3]: 97.8

Compound: CCC(Cc1ccccc1)NC(C)=O (racemic) [Substrate 12a]
- Selectivity E [3]: 87
- e.e. (S)-Amine [3]: 93.0 and 87.9
- e.e. (R)-Amide [3]: 90.7 and > 99.9

Compound: CC(=O)NC(C)c1cccc(C#N)c1 (racemic) [racemic (m-cyano) derivative, N-acetyl-(m-cyano-phenyl)ethylamine]
- Km (AcR5b-acylase [4]): 10.4 mM
- relative maximum reaction velocity (AcR5b-acylase [4]): 23%

Compound: OCC(O)CO [5% Glycerol, Glycerol]
- Relative activity (%) (AcR5b-acylase [5]; [6]): 100%
- Relative activity (%) (AcR5b-acylase [5]; [7]): 100%
- Relative activity (%) (AcR5b-acylase [5]; [8]): 89%
- Relative activity (%) (AcR5b-acylase [5]; [9]): 97%

Compound: N.N.O=S(=O)(O)O [10% (NH4)2 SO4, (NH4)2 SO4]
- Relative activity (%) (AcR5b-acylase [5]; [6]): 100%
- Relative activity (%) (AcR5b-acylase [5]; [7]): 92%
- Relative activity (%) (AcR5b-acylase [5]; [8]): 81%
- Relative activity (%) (AcR5b-acylase [5]; [9]): 83%

Compound: OC[C@H]1O[C@@](CO)(O[C@H]2O[C@H](CO)[C@@H](O)[C@H](O)[C@H]2O)[C@@H](O)[C@@H]1O [10% Saccharose, Saccharose]
- Relative activity (%) (AcR5b-acylase [5]; [6]): 100%
- Relative activity (%) (AcR5b-acylase [5]; [7]): 100%
- Relative activity (%) (AcR5b-acylase [5]; [8]): 100%
- Relative activity (%) (AcR5b-acylase [5]; [9]): 92%

Compound: OCC(O)CO [50% Glycerol, Glycerol]
- Relative activity (%) (AcR5b-acylase [5]; [6]): 77%
- Relative activity (%) (AcR5b-acylase [5]; [7]): 100%
- Relative activity (%) (AcR5b-acylase [5]; [8]): 98%
- Relative activity (%) (AcR5b-acylase [5]; [9]): 90%

Compound: C=CC[C@H](Cc1ccccc1)NC(C)=O [(R)-N-2-acetylamino-1-phenyl-4-pentene]
- ee of the unconverted amide (K1/1 acylase): 98.8 % ee

Compound: CC(=O)N[C@H](C)c1ccccc1 [(R)-N-acetyl-1-phenylethylamine]
- Km (AcR5b-acylase [4]): 5.7 mM
- relative maximum reaction velocity (AcR5b-acylase [4]): 100%
- induction of the acylase expression of strain Ac6 (R. equi Ac6): not effective as an inducer
- Enzyme yield with (R)-amide as the acylase substrate (R. equi Ac6): 0 U/lculture broth
- Enzyme yield with (S)-amide as the acylase substrate (R. equi Ac6): 0 U/lculture broth
- OD660 at cell harvest (R. equi Ac6): 0.19
- effect on growth of Rhodococcus equi Ac6 (R. equi Ac6): inhibits the growth of the bacterium

Compound: C=CC[C@H](N)Cc1ccccc1 [(S)-2-amino-1-phenyl-4-pentene]
- ee of the formed amine (K1/1 acylase): 87.4 % ee

Compound: CC(=O)N[C@@H](C)c1ccccc1 [(S)-N-acetyl-1-phenylethylamine]
- maximal acylase production (R. equi Ac6; 2 g/l inducer added 72 h after inoculation, harvest 96 h): 20 U/lculture medium
- induction of the acylase expression of strain Ac6 (R. equi Ac6): has to be present in the growth medium to induce the acylase expression
- maximal acylase yield (R. equi Ac6; 3 g/l inducer added directly after inoculation, harvest 96 h): 60 U/lculture medium
- Enzyme yield with (R)-amide as the acylase substrate (R. equi Ac6): < 0.4 U/lculture broth
- Enzyme yield with (S)-amide as the acylase substrate (R. equi Ac6): 38.2 U/lculture broth
- OD660 at cell harvest (R. equi Ac6): 1.52
- effect on growth of Rhodococcus equi Ac6 (R. equi Ac6): inhibits the growth of the cells
